Experiments:
Assay type in all cases: physicochemical
[1] = Drug shielding on Nylon 12 film, PTX release in porcine whole blood
Experimental: (§1) Compounds 1, 7, and 14 (200 mg/mL) were dissolved in THF. PTX was added to each solution to make a 25 mg/mL solution. Nylon 12 film sheets were cut 1×1 cm size, blend solution was drop cast on the film sheet, dried in a 50° C. flow oven for 1 day. PTX alone was prepared the same way and used as the control. PBS pH 7.4 was pre-warmed to 37° C. Test articles and control articles were incubated in media (4 mL) at 37° C. for 10, 30, 60 and 120 minutes. At the end of each time point, media was exchanged and at the end of the study, the films were stripped with organic solvent, centrifuged, the supernatant collected, and solvent dried overnight at 60° C. The assessment of the drug shielding effect was analyzed by RP-HPLC with benzonitrile as the internal standard. 10 minute PTX release in PBS (ng/mL): Compound 1: 107.6, Compound 7: 79.7, Compound 14: 15.4, PTX alone: 651. The assessment of oligofluoro adhesion on film surface was done by NMR. A calibration curve for each compound was generated by NMR. Stripped coating was re-suspended in CDCl3 (1 mL) and NMR was performed. Quantity of remaining material was back calculated from NMR integration area. Percent remaining material after 120 minute incubation in PBS: Compound 1: 82.1, Compound 7: 85.5. Similar assessment of drug shielding on films was done with porcine whole blood. […]

[2] = Drug shielding effect on Nylon 12 film, PTX release in PBS; conditions: PBS pH 7.4, 37° C.
Experimental: as §1

[3] = Oligofluoro as solubilizing agent, drug release from coated nylon films in water; conditions: drug at 4 wt %, nylon film, water 24 hours
Experimental: Coating was made on nylon film by drop casting method. Control films with drug coated only was also prepared in a same manner. Coated nylon films were incubated in water for 24 hours to measure drug release.

Structure (SMILES): CC(=O)O[C@H]1C(=O)[C@@]2(C)[C@H]([C@H](OC(=O)c3ccccc3)[C@]3(O)C[C@H](OC(=O)[C@H](O)[C@@H](NC(=O)c4ccccc4)c4ccccc4)C(C)=C1C3(C)C)[C@]1(OC(C)=O)CO[C@@H]1C[C@@H]2O [PTX, paclitaxel]
- 10 minute PTX release in blood [1]: 75.6%
- 10 minute PTX release in PBS [2]: 651 ng/mL
- Percentage drug released in water [3]: 11%

Reference: patent publication US10195311B2, “Local delivery of drugs from self assembled coatings” (Interface Biologics, Inc., priority 2009, dated 2019)
